Values after ≈ are worked out from the molar mass of the structure shown. Values joined by “and” are separate entries in the source; they are usually repeats but may differ in a detail not shown here. Equal values may be shown once.
How the values were obtained:
Assay type in all cases: cell-based
[1] = system: Penicillum chrysogenum AUMC 9476; assay: microdilution assay, minimal inhibitory concentration; conditions: P. chrysoginum; water-soluble form
Experimental: (§1) To evaluate antimicrobial activity of the compound 4, synthesized in our laboratory as novel anti-bacterial and anti-fungal agents, the inhibition zone diameter (mm) and the minimal inhibitory concentration were determined according to (Andrews 2001; Hudzicki 2009). The test carried out on several clinical microorganisms included Gram positive bacteria (Staphylococcus aureus ATCC and Streptococcus mutans ATCC 35668), Gram negative bacteria (Escherichia coli ATCC 25922, Salmonella typhimurium ATCC 14028 and Neisseria meningitides ATCC 1302); yeasts (Candid albicans ATCC 60193, Cryptococcus neoformans Wild strain and Candida parapsilosus ATCC 22019) and molds (Aspergillus fumigatus AUMC 8794, Penicillum chrysogenum AUMC 9476 and Fusarium sp.)
(§2) The minimal inhibitory concentration (MIC) of compound 4 (water-soluble form) was determined by a microdilution assay, using Mueller-Hinton broth (for bacteria) and Potato dextrose broth (for fungi). The compound 4 was dissolved in sterile culture broth (2 mg/mL). Two fold serial dilutions were carried out to obtain concentrations ranging from 2 to 0.008 mg/mL. 95 μL of each dilution were added in 96-well plates, then each well was inoculated with 5 μL of inoculation microbial suspension (5×10^8 colony form unit (CFU)/ml). The plates were incubated at suitable conditions according to tested microorganism. After the incubation, the microbial growth was detected in the wells by p-iodonitrotetrazolium violet (Sigma, USA) reagent. Each well received 20 μL of the reagent (0.5 mg/ml) and was then incubated at 37±1° C. for 30 min. A violet color indicated microbial growth in the well. The minimal inhibitory concentration (mg/ml) of the compound 4 was estimated as the lowest concentration that inhibited microbial growth.

[2] = system: Cryptococcus neoformans Wild strain; assay: as above; conditions: C. neoformasn, water-soluble form
Experimental: as §1, §2

[3] = system: Salmonella typhimurium ATCC 14028; assay: as above; conditions: Salmonella enterica; Sa. typhimurium; water-soluble form
Experimental: as §1, §2

[4] = system: Streptococcus mutans ATCC 35668; assay: as above; conditions: ATCC35668, S. mutans, water-soluble form
Experimental: as §1, §2

[5] = system: Candid albicans ATCC 60193; assay: as above; conditions: Candida albicans, ATCC60193; C. albicans; water-soluble form
Experimental: as §1, §2

[6] = system: Neisseria meningitides ATCC 1302; assay: as above; conditions: ATCC1302, N. meningitides, water-soluble form
Experimental: as §1, §2

[7] = system: Staphylococcus aureus ATCC; assay: as above; conditions: S. aureus, water-soluble form
Experimental: as §1, §2

Fusarium sp. [8] = assay: as above; conditions: water-soluble form
Experimental: as §1, §2

[9] = system: Aspergillus fumigatus AUMC 8794; assay: as above; conditions: AUMC8794, A. fumigatus, water-soluble form
Experimental: as §1, §2

[10] = system: Escherichia coli ATCC 25922; assay: as above; conditions: ATCC25922, E. coli, water-soluble form
Experimental: as §1, §2

[11] = system: Candida parapsilosus ATCC 22019; assay: as above; conditions: ATCC22019, C. parasilosus, water-soluble form
Experimental: as §1, §2

[12] = system: Penicillum chrysogenum AUMC 9476; assay: disk diffusion assay, inhibition zone; conditions: P. chrysoginum; 4 mg/disk; soluble water compound 4
Experimental: as §1
(§3) The clinical microorganisms were cultivated at least three times on suitable culture medium and incubating conditions before susceptibility test. The concentration of microbial inoculation suspensions in sterile sodium chloride solution (0.89%) were adjusted to 0.65 at 620 nm by spectrophotometer. […]
(§4) After that, the disks were dried at 25° C. under sterile conditions by safety biological cabinet. A Mueller-Hinton agar (MHA) (Scharlau Microbiogy, Spain) and a potato dextrose agar (PDA) (Scharlau, Spain) were used to perform antibacterial and antifungal test respectively. The media were prepared according to manufacturer's guidelines. To prepare one liter of MHA and one liter of PDA, 21 grams of MHA and 39 grams of PDA were dissolved in one liter of sterile distilled water, followed by sterilization at 121° C. for 15 minutes by an autoclave (HL-321, Taiwan). The sterilized media were poured in sterile plastic Petri dishes at 50° C. The plates were allowed to let the medium solidify at room temperature. 0.1 ml of microbial inoculation suspensions were spread on dried surface of medium and were kept at 25° C. for 5-10 minutes. The compound 4 and standard antimicrobial drugs discs (Table 1) were dispensed on the surface of inoculated media. The tested bacteria and fungi were incubated at 37±1° C. for 19-22 hours and at 25±1 for 48-72 hours respectively. After the incubation, the diameter of inhibition zone (millimeter) resulting from the biological activity of compound were recorded.

[13] = system: Cryptococcus neoformans Wild strain; assay: disk diffusion assay, inhibition zone; conditions: C. neoformasn; 4 mg/disk; soluble water compound 4
Experimental: as §1, §3, §4

[14] = system: Salmonella typhimurium ATCC 14028; assay: disk diffusion assay, inhibition zone; conditions: Sa. typhimurium; 4 mg/disk; soluble water compound 4
Experimental: as §1, §3, §4

[15] = system: Streptococcus mutans ATCC 35668; assay: disk diffusion assay, inhibition zone; conditions: S. mutans
Experimental: as §1, §3, §4

[16] = system: Candid albicans ATCC 60193; assay: disk diffusion assay, inhibition zone; conditions: C. albicans; 4 mg/disk; soluble water compound 4
Experimental: as §1, §3, §4

[17] = system: Staphylococcus aureus ATCC; assay: disk diffusion assay, inhibition zone; conditions: S. aureus; 4 mg/disk; soluble water compound 4
Experimental: as §1, §3, §4

Fusarium sp. [18] = assay: disk diffusion assay, inhibition zone; conditions: Fusarium sp.; 4 mg/disk; soluble water compound 4
Experimental: as §1, §3, §4

[19] = system: Aspergillus fumigatus AUMC 8794; assay: disk diffusion assay, inhibition zone; conditions: A. fumigatus; 4 mg/disk; soluble water compound 4
Experimental: as §1, §3, §4

[20] = system: Escherichia coli ATCC 25922; assay: disk diffusion assay, inhibition zone; conditions: E. coli; 4 mg/disk; soluble water compound 4
Experimental: as §1, §3, §4

[21] = system: Candida parapsilosus ATCC 22019; assay: disk diffusion assay, inhibition zone; conditions: C. parasilosus; 4 mg/disk; soluble water compound 4
Experimental: as §1, §3, §4

Q: With `CCOC(=O)CSC(=S)SCC(=O)OCC` [Compound 4, diethyl 2,2′-(thiocarbonylbis(sulfanediyl))diacetate] as the molecule, how does the MIC [1] read?
A: Its MIC is 31.2 µg/mL (≈ 111 µM).

Q: What about the MIC [2] of the same molecule?
A: Its MIC is 31.2 µg/mL (≈ 111 µM).

Q: What about the MIC [3] of the same molecule?
A: Its MIC is 2000 µg/mL (≈ 7080 µM).

Q: What about the MIC [4] of the same molecule?
A: The MIC was 62.5 µg/mL (≈ 221 µM).

Q: What about the MIC [5] of the same molecule?
A: Its MIC is 62.5 µg/mL (≈ 221 µM).

Q: And the MIC [6]?
A: Its MIC is 62.5 µg/mL (≈ 221 µM).

Q: And the MIC [7]?
A: The MIC was 2000 µg/mL (≈ 7080 µM).

Q: And the MIC (Fusarium sp. [8])?
A: The MIC was 31.2 µg/mL (≈ 111 µM).

Q: And the MIC [9]?
A: Its MIC is 31.2 µg/mL (≈ 111 µM).

Q: What about the MIC [10] of the same molecule?
A: Its MIC is 1000 µg/mL (≈ 3540 µM).

Q: What about the MIC [11] of the same molecule?
A: The MIC was 50 µg/mL (≈ 177 µM).

Q: What about the Inhibition zone diameter [12] of the same molecule?
A: The Inhibition zone diameter was 30.3 ± .5 B mm.

Q: What about the Inhibition zone diameter [13] of the same molecule?
A: Its Inhibition zone diameter is 30 mm and 30 ± 1 B mm.

Q: And the Inhibition zone diameter [14]?
A: Its Inhibition zone diameter is 8.6 ± 0.5 F mm.

Q: And the “biological activity, in words” value [15]?
A: The value was “very good”.

Q: What about the Inhibition zone diameter ([15]; 4 mg/disk, soluble water compound 4) of the same molecule?
A: The Inhibition zone diameter was 20 ± 1 D mm.

Q: And the Inhibition zone diameter [16]?
A: The Inhibition zone diameter was 20 ± 1 D mm.

Q: And the Inhibition zone diameter [17]?
A: Its Inhibition zone diameter is 10.6 ± 0.5 F* mm.

Q: And the Inhibition zone diameter (Fusarium sp. [18])?
A: Its Inhibition zone diameter is 30 ± 1 B mm.

Q: And the Inhibition zone diameter [19]?
A: Its Inhibition zone diameter is 34.6 ± 0.5 A mm.

Q: And the Inhibition zone diameter [20]?
A: The Inhibition zone diameter was 11.6 ± 0.5 E mm.

Q: And the Inhibition zone diameter [21]?
A: Its Inhibition zone diameter is 13 ± 1 E mm.

From patent US9988348B1, “Synthesis and antimicrobial use of a trithiocarbonate derivative” (KING SAUD UNIVERSITY, priority 2017, dated 2018)
